Experimental data from ChEMBL document CHEMBL1156981, “NGF-potentiating vibsane-type diterpenoids from Viburnum sieboldii” (Bioorg Med Chem Lett, 2010).
Active and inactive are the calls of the source. No cut-off for these calls is given here.

Key:
Type in all cases: functional, cell-based
[1] = test system: PC-12; experiment: Induction of neurite outgrowth in rat PC12 cells assessed as morphological changes after 48 hrs by phase-contrast microscopy
[2] = test system: PC-12; experiment: Potentiation of NGF-induced neurite outgrowth in rat PC12 cells assessed as morphological changes after 48 hrs by phase-contrast microscopy
[3] = test system: PC-12; experiment: Potentiation of NGF-induced neurite outgrowth in rat PC12 cells assessed increase in neurite length extending from cell bodies after 48 hrs by phase-contrast microscopy
[4] = test system: PC-12; experiment: Potentiation of NGF-induced neurite outgrowth in rat PC12 cells assessed as morphological changes at 0.1 to 40 uM after 48 hrs by phase-contrast microscopy
[5] = test system: PC-12; experiment: Potentiation of NGF-induced neurite outgrowth in rat PC12 cells assessed increase in neurite length extending from cell bodies at 0.1 to 40 uM after 48 hrs by phase-contrast microscopy

Compound	Activity [1]	Activity [2]	Activity [3]	Activity [4]	Activity [5]
COC(C)(C)/C=C/C[C@@]1(C)CC=C2CO[C@H]3C[C@@](C)(OC)O[C@@]23[C@@H]1/C=C/OC(=O)C=C(C)C	inactive	–	–	–	–
COC(C)(C)/C=C/C[C@@]1(C)CC=C2CO[C@H]3C[C@](C)(OC)O[C@@]23[C@@H]1/C=C/OC(=O)C=C(C)C	inactive	Dose-dependent effect	Dose-dependent effect	–	–
COC(C)(C)/C=C/C[C@@]1(C)CC=C2CO[C@H]3C[C@@](C)(OC)O[C@@]23[C@@H]1/C=C\OC(=O)C=C(C)C	inactive	Dose-dependent effect	Dose-dependent effect	–	–
COC(C)(C)/C=C/C[C@@]1(C)CC=C(CO)C(=O)[C@@H](CC(C)=O)[C@@H]1/C=C/OC(=O)C=C(C)C	inactive	–	–	inactive	inactive
CC(=O)C[C@@H]1C[C@@]2(C)CC=C3CO[C@@H](CC(C)=O)[C@]3(O1)[C@@H]2/C=C/OC(=O)C=C(C)C	inactive	–	–	–	–
CO[C@]1(C)C[C@@H]2OCC3=CC[C@](C)(C/C=C/C(C)C)[C@@H](/C=C/OC(=O)C=C(C)C)[C@]32O1	inactive	Dose-dependent effect	Dose-dependent effect	–	–
CO[C@@]1(C)C[C@@H]2OCC3=CC[C@](C)(C/C=C/C(C)C)[C@@H](/C=C/OC(=O)C=C(C)C)[C@]32O1	inactive	Dose-dependent effect	Dose-dependent effect	–	–
COC(C)(C)/C=C/C[C@@]1(C)CC=C(CO)C(=O)[C@H](CC(C)=O)[C@@H]1/C=C/OC(=O)C=C(C)C	inactive	–	inactive	inactive	inactive
